{"source": "patent US6919094B1", "about": "“Composition of medicine for treating headache disease and process of preparation and uses thereof” (priority 2000, dated 2005)", "key": {"[1]": {"test_system": "rabbit platelet", "assay": "rabbit platelet aggregation induced by ADP (Born's method)", "format": "cell-based", "conditions": "rabbit platelet-rich plasma, ADP 12 μM, 5th minute, 0.27 mg/ml", "method": "1.1 The influence on the rabbit platelet's aggregative character: Rabbit platelet plasma was prepared according to the Csalay's method. Lucid rabbit's blood was collected by carotid arterial cannula, then the blood was mingled with 3.8% sodium citrate in proportion of 9:1 to anticoagulate. The mixture was centrifuged on the speed of 1000 rpm for 5 minutes then at the speed of 3000 rpm for 10 minutes. The blood plasma was separated into the platelet-rich plasma and the platelet-absent plasma. When conducting the measurement, the platelet aggregation percent was regulated to 50-60%. The platelet aggregation experiment was performed according to the Born's method by the PPP autobalance platelet-aggregation-machine (type SPA-3), keeping the concentrate of ADP(the aggregation inducer) at 12 μM, then collecting the data and comparing the aggregation percents between the treatment group and the control group at the 5th minute."}, "[2]": {"test_system": "rat platelet", "assay": "rat platelet aggregation after gastric administration", "format": "in vivo", "conditions": "2.7 × 10-2 g/kg PO, ADP 2.8 μM", "method": "1.1 The influence on the rabbit platelet's aggregative character: Rabbit platelet plasma was prepared according to the […] method. […] The mixture was centrifuged on the speed of 1000 rpm for 5 minutes then at the speed of 3000 rpm for 10 minutes. The blood plasma was separated into the platelet-rich plasma and the platelet-absent plasma. […] 1.5 hour after the administration, the blood from the abdominal aorta was collected on the condition of anesthesia by ether. The platelet plasma was prepared by the same method mentioned above, and the PLT aggregation experiment performed by the same machine with a different ADP concentrate of 2.8 μM."}, "[3]": {"test_system": "male Wistar rats", "assay": "rat's experimental thrombosis (extracorporeal circulation)", "format": "in vivo", "conditions": "0.05 g/kg iv", "method": "1.3 The influence on the rat's experimental thrombosis: Male Wistar rats weighing 270-370 g were chosen to be anaesthetized by belly injection of sodium pentobarbital on the dosage of 50 mg/kg, then the rats were fixed at the supine position and the right common carotid artery and the left external jugular vein were detached. A polyvinyl pipe of 19.5 cm long with the inside diameter of 1.5 mm embedded in a 5.0 cm-long type 4 suture and filled with the solution of heparin and normal saline (25 μ/kg) was inserted into the right common carotid artery one end and the left external jugular vein the other end. […] 15 minutes later, the pipe was closed, the suture taken out and the greenweight measured."}, "[4]": {"test_system": "female NIH mice", "assay": "mouse hot-plate method pain threshold", "format": "in vivo", "conditions": "1.5 × 10-2 g/kg ip", "method": "2.1 The influence on the mouse's reaction to the heat: The experiment referred to the mouse hot-plate method: female NIH mice weighing 18-22 g were put on the type CS501 ultra thermostat's metallic plate, on which the temperature was 55.0±0.5° C. The action of sucking the postpedes and jumping were concerned as the indexes to the pain caused by the heat and the shortest time when the mouse shown the indexes was defined as the pain threshold. The sensitive mice whose pain threshold were shorter than 30 s were chosen and divided into 4 groups according to their pain threshold, each group including 10 mice. […] If the threshold was beyond 60 s, it would be recorded as 60 s. […] The group on the dosage of 5.0 g/kg improved the pain threshold by 148.74% (p<0.001), and the effect lasted 5 hours."}, "[5]": {"test_system": "SD white rats", "assay": "rat's tail-whipping method pain threshold", "format": "in vivo", "conditions": "1.5 × 10-2 g/kg PO", "method": "2.2 The influence on the rat's reaction to the heat. The experiment referred to the rat's tail-whipping method: SD white rats weighing 180-220 g were chosen and the distal ⅓ of their tails were dipped into hot water in which the temperature was regulated to 55.0±0.5° C. by the CS501 ultra thermostat. The tail's whipping out of the water was defined to be the index of pain. The rats were divided equably into 5 groups according to the pain threshold and each group had 9 rats. […] (p<0.05), 64.52% (P<0.05), the duration of effect was 1 h, 4 h."}, "[6]": {"test_system": "female NIH mice", "assay": "mouse electrostimulation pain threshold", "format": "in vivo", "conditions": "0.05 g/kg ip", "source_text": "2.3 The influence on the electrostimulation of mouse: The experiment method adopted was to simulate the mouse's vola with the electricity. Female NIH mice weighing 18-22 g were chosen and put on the conductive copper-wire plate of the YSD-4 multipurpose apparatus's zoopery box. The electricity was switched on and the time when the mouse […] chosen as the index of pain threshold. The sensitive mice whose pain thresholds were shorter than 15 s were chosen to do the experiment."}, "[7]": {"test_system": "female NIH mice", "assay": "mouse's body-twisting method (ethanoic acid)", "format": "in vivo", "conditions": "0.10 g/kg ip, 0.8% ethanoic acid, 20 minutes", "method": "The experiment method was the mouse's body-twisting method. Female NIH mice weighing 18-22 g were divided into groups at random and each group had 10 mice. […] The number of the mice's body twisting in the following 20 minutes were recorded as the index."}, "[8]": {"test_system": "spontaneous hypertension rat (SHR)", "assay": "BP of the spontaneous hypertension rat", "format": "in vivo", "conditions": "2 × 10-2 g/kg PO"}, "[9]": {"test_system": "Kunming mice", "assay": "mouse's spontaneous activity", "format": "in vivo", "conditions": "5 × 10-2 g/kg PO", "source_text": "Kunming mice weighing 18-22 g were chosen and divided into groups at random. Each group was made up of 10 mice."}}, "data": [{"smiles": "CC(=O)Oc1ccccc1C(=O)O", "note": "[Aspirin]", "values": [{"measurement": "aggregation percent", "setting": "[1]", "result": "39.94 ± 2.05", "unit": "%"}, {"measurement": "platelet aggregation percent (max)", "setting": "[2]", "result": "31.06 ± 3.80", "unit": "%"}, {"measurement": "greenweight of thrombus", "setting": "[3]", "result": "18.28 ± 1.28", "unit": "mg"}]}, {"smiles": "CN1CC[C@]23c4c5ccc(O)c4O[C@H]2[C@@H](O)C=C[C@H]3[C@H]1C5.Cl", "note": "[Morphine hydrochloride]", "values": [{"measurement": "pain threshold (hot-plate method)", "setting": "[4]; 1/2 h after administration, cut-off 60 s", "result": ">60", "unit": "s"}, {"measurement": "pain threshold (hot-plate method)", "setting": "[4]; 1 h after administration, cut-off 60 s", "result": ">60", "unit": "s"}, {"measurement": "pain threshold (hot-plate method)", "setting": "[4]; 3 h after administration, cut-off 60 s", "result": ">60", "unit": "s"}, {"measurement": "pain threshold (hot-plate method)", "setting": "[4]; 5 h after administration, cut-off 60 s", "result": ">60", "unit": "s"}, {"measurement": "pain threshold (hot-plate method)", "setting": "[4]; before administration", "result": "22.5 ± 2.4", "unit": "s"}, {"measurement": "pain threshold (tail-whipping method)", "setting": "[5]; 1/2 h after administration", "result": "9.2 ± 0.8"}, {"measurement": "pain threshold (tail-whipping method)", "setting": "[5]; 1 h after administration", "result": "5.7 ± 0.4"}, {"measurement": "pain threshold (tail-whipping method)", "setting": "[5]; 2 h after administration", "result": "4.5 ± 0.4"}, {"measurement": "pain threshold (tail-whipping method)", "setting": "[5]; 4 h after administration", "result": "3.3 ± 0.4"}, {"measurement": "pain threshold (tail-whipping method)", "setting": "[5]; before administration", "result": "3.2 ± 0.3"}]}, {"smiles": "Cc1c(N(C)C)c(=O)n(-c2ccccc2)n1C", "note": "[aminopyrine]", "values": [{"measurement": "pain threshold in the electrostimulation experiment", "setting": "[6]; after administration", "result": "21.3 ± 5.5", "unit": "s"}, {"measurement": "pain threshold in the electrostimulation experiment", "setting": "[6]; before administration", "result": "4.8 ± 1.0", "unit": "s"}, {"measurement": "twist times", "setting": "[7]", "result": "2.8 ± 1.3"}]}, {"smiles": "C[C@H](CS)C(=O)N1CCC[C@H]1C(=O)O", "note": "[Captopril]", "values": [{"measurement": "blood pressure", "setting": "[8]; 1/2 week", "result": "113.5 ± 3.9"}, {"measurement": "blood pressure", "setting": "[8]; 1 week", "result": "138.2 ± 3.6"}, {"measurement": "blood pressure", "setting": "[8]; 2 week", "result": "142.3 ± 1.8"}, {"measurement": "blood pressure", "setting": "[8]; 3 week", "result": "140.0 ± 2.0"}, {"measurement": "blood pressure", "setting": "[8]; before administration", "result": "170.5 ± 2.9"}]}, {"smiles": "COc1cc2c(cc1OC)[C@@H]1Cc3ccc(OC)c(OC)c3CN1CC2", "note": "[tetrahydropalmatine]", "values": [{"measurement": "Amount of spontaneous activity", "setting": "[9]", "result": "24.3 ± 4.3"}]}]}
